# Reference: patent publication US10912759B2 (priority 2018, dated 2021)
# What was measured:
# [1] = system: SprX; assay type: cell-based, S. aureus; conditions: 1% (w/v), one hour, RNA level by RT-PCR
# From the text: (§1) FIG. 10 is a graph showing the effect of the topical gel on S. aureus gene expression compared to mupirocin treatment. Results are expressed as percent change in intensity values.
# (§2) FIG. 11 is a graph showing the effect of the topical gel on S. aureus gene expression compared to control and mupirocin treatment. Results are expressed as gene expression intensity ratios.
# (§3) In an effort to elucidate the mechanism of action of the topical gel on S. aureus as well as to examine any commonalities or differences in Staphylococcal response to treatment, transcriptional response was evaluated. S. aureus was either 1) grown alone as a control, 2) grown in 1% (w/v) topical gel, or 3) grown in 1% (w/v) Mupirocin for one hour. Cells were harvested and total RNA was extracted. Reverse Transcriptase polymerase chain reaction using gene specific primers was utilized to determine the RNA levels for the specific genes RecA, SprX, and PsrA. RecA is a protein specific for SOS response in Staphylococcus indicative of a need to repair DNA damage. SprX is a small RNA associated with Staphylococcus antibiotic resistance. PsrA regulates expression of proteins in the cell wall of Staphylococcus which are both essential for bacterial survival and antibiotic resistance.
# [2] = system: PsrA; experiment: S. aureus gene expression by RT-PCR; assay type: cell-based; conditions: 1% (w/v), one hour, RNA level by RT-PCR
# From the text: as §1, §2, §3
# [3] = system: S. aureus; experiment: MIC and MBC of topical gel vs. Mupirocin; assay type: cell-based, Staphylococcus aureus; conditions: 0-10% w/v, overnight at 37° C., aliquots plated, lack of any growth
# Method: MIC was determined by visually observing where turbid growth stopped, MBC was determined by taking aliquots from each tube, plating onto media, and observation for lack of any growth.
# Mupirocin is the standard ointment for treatment of S. aureus topical infections. […] MIC was determined by visually observing where turbid growth stopped, MBC was determined by taking aliquots from each tube, plating onto media, and observation for lack of any growth.
smiles,measurement,setting,value
C/C(=C\C(=O)OCCCCCCCCC(=O)O)C[C@@H]1OC[C@H](C[C@@H]2O[C@H]2[C@@H](C)[C@H](C)O)[C@@H](O)[C@H]1O [Mupirocin],reduction of expression of SprX,[1],78%
same,reduction of expression of PsrA,[2],56%
same,MBC values compared to topical gel,[3],lower MBC values
